Patent US4731451A, “N-((2-oxo-3(2H)benzothiazolyl)methyl)-2-chloroacetanilides” (Monsanto Company, priority 1980, dated 1988)

What was measured:
Format in all cases: in vivo
Barnyardgrass = test: Pre-emergent herbicidal activity (Table III); also: ranges in brackets are in %
Summary of the method: (§1)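 Pre-emergence, soil-incorporated cover layer: known amount of test compound (solvent or wettable powder) mixed into fill soil over seeded pans; greenhouse, bottom-watered; fixed-scale percent-injury rating at ~2-3 wk.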

Cocklebur = test: Pre-emergent herbicidal activity (Table III); also: ranges in brackets are in %
Summary of the method: as §1

Downy Brome = test: Pre-emergent herbicidal activity (Table III); also: ranges in brackets are in %
Summary of the method: as §1

Hemp Sesbania = test: Pre-emergent herbicidal activity (Table III); also: ranges in brackets are in %
Summary of the method: as §1

Lambsquarters = test: Pre-emergent herbicidal activity (Table III); also: ranges in brackets are in %
Summary of the method: as §1

Morningglory = test: Pre-emergent herbicidal activity (Table III); also: ranges in brackets are in %
Summary of the method: as §1

Panicum = test: Pre-emergent herbicidal activity (Table III); also: ranges in brackets are in %
Summary of the method: as §1

Smartweed = test: Pre-emergent herbicidal activity (Table III); also: ranges in brackets are in %
Summary of the method: as §1

Sorghum = test: Pre-emergent herbicidal activity (Table III); also: ranges in brackets are in %
Summary of the method: as §1

Soybean = test: Pre-emergent herbicidal activity (Table III); also: ranges in brackets are in %
Summary of the method: as §1

Sugarbeet = test: Pre-emergent herbicidal activity (Table III); also: ranges in brackets are in %
Summary of the method: as §1

Velvetleaf = test: Pre-emergent herbicidal activity (Table III); also: ranges in brackets are in %
Summary of the method: as §1

Wheat = test: Pre-emergent herbicidal activity (Table III); also: ranges in brackets are in %
Summary of the method: as §1

Wild Buckwheat = test: Pre-emergent herbicidal activity (Table III); also: ranges in brackets are in %
Summary of the method: as §1

Rice = test: Percent inhibition in transplanted rice (Table VI)
Excerpt: (§2) In Table VI, data is presented showing the effect of said compound on the major Asian rice weeds Echinochloa crusgalli (EC), Monochoria vaginalis (MV), Cyperus serotinus (CS), Eleocharis kuroguwai (EK) and Sagittaria trifolia (ST) in transplanted rice at rates within the range of 0.25-2.0 lb/A (0.28-2.24 kg/ha); observations were made 18 days after treatment.

Cyperus serotinus = test: Percent inhibition of rice weeds in transplanted rice (Table VI); conditions: 432 h, 18 days after treatment
Excerpt: as §2

Echinochloa crusgalli = test: as above; conditions: Echinochloa crus-galli, 432 h, 18 days after treatment
Excerpt: as §2

Eleocharis kuroguwai = test: as above; conditions: 432 h, 18 days after treatment
Excerpt: as §2

Monochoria vaginalis = test: as above; conditions: Pontederia vaginalis, 432 h, 18 days after treatment
Excerpt: as §2

Sagittaria trifolia = test: as above; conditions: 432 h, 18 days after treatment
Excerpt: as §2

major Asian rice weeds = test: Selective control of weeds in transplanted rice (summary of Table VI)
Excerpt: as §2

## CC1=C(N(Cn2c(=O)sc3ccccc32)C(=O)CCl)C(C)CCC1 (stereo not shown) [Example 1, N-(2,6-dimethyl-1-cyclohexen-1-yl)-N-[(2-oxo-3(2H)-benzothiazolyl)methyl]-2-chloroacetamide]
Barnyardgrass; 0.0056 kg/ha
  Herbicidal rating: 3 (75-100)
Barnyardgrass; 0.0112 kg/ha
  Herbicidal rating: 3 (75-100)
Barnyardgrass; 0.056 kg/ha
  Herbicidal rating: 3 (75-100)
Barnyardgrass; 0.28 kg/ha
  Herbicidal rating: 3 (75-100)
Barnyardgrass; 1.12 kg/ha
  Herbicidal rating: 3 (75-100)
Barnyardgrass; 5.6 kg/ha
  Herbicidal rating: 3 (75-100)
Cocklebur; 0.0112 kg/ha
  Herbicidal rating: 0 (0-24)
Cocklebur; 0.056 kg/ha
  Herbicidal rating: 0 (0-24)
Downy Brome; 0.0056 kg/ha
  Herbicidal rating: 0 (0-24)
Downy Brome; 0.0112 kg/ha
  Herbicidal rating: 1 (25-49)
Downy Brome; 0.056 kg/ha
  Herbicidal rating: 0 (0-24)
Downy Brome; 0.28 kg/ha
  Herbicidal rating: 0 (0-24)
Downy Brome; 1.12 kg/ha
  Herbicidal rating: 3 (75-100)
Downy Brome; 5.6 kg/ha
  Herbicidal rating: 0 (0-24)
Hemp Sesbania; 0.0112 kg/ha
  Herbicidal rating: 1 (25-49)
Hemp Sesbania; 0.056 kg/ha
  Herbicidal rating: 0 (0-24)
Lambsquarters; 0.0056 kg/ha
  Herbicidal rating: 1 (25-49)
Lambsquarters; 0.0112 kg/ha
  Herbicidal rating: 1 (25-49)
Lambsquarters; 0.056 kg/ha
  Herbicidal rating: 1 (25-49)
Lambsquarters; 0.28 kg/ha
  Herbicidal rating: 2 (50-74)
Lambsquarters; 1.12 kg/ha
  Herbicidal rating: 2 (50-74)
Lambsquarters; 5.6 kg/ha
  Herbicidal rating: 1 (25-49)
Morningglory; 0.0056 kg/ha
  Herbicidal rating: 3 (75-100)
Morningglory; 0.0112 kg/ha
  Herbicidal rating: 3 (75-100)
Morningglory; 0.056 kg/ha
  Herbicidal rating: 1 (25-49)
Morningglory; 0.28 kg/ha
  Herbicidal rating: 0 (0-24)
Morningglory; 1.12 kg/ha
  Herbicidal rating: 0 (0-24)
Morningglory; 5.6 kg/ha
  Herbicidal rating: 0 (0-24)
Panicum; 0.0056 kg/ha
  Herbicidal rating: 3 (75-100)
Panicum; 0.0112 kg/ha
  Herbicidal rating: 3 (75-100)
Panicum; 0.056 kg/ha
  Herbicidal rating: 3 (75-100)
Panicum; 0.28 kg/ha
  Herbicidal rating: 3 (75-100)
Panicum; 1.12 kg/ha
  Herbicidal rating: 3 (75-100)
Panicum; 5.6 kg/ha
  Herbicidal rating: 2 (50-74)
Smartweed; 0.0056 kg/ha
  Herbicidal rating: 1 (25-49)
Smartweed; 0.0112 kg/ha
  Herbicidal rating: 1 (25-49)
Smartweed; 0.056 kg/ha
  Herbicidal rating: 1 (25-49)
Smartweed; 0.28 kg/ha
  Herbicidal rating: 1 (25-49)
Smartweed; 1.12 kg/ha
  Herbicidal rating: 0 (0-24)
Smartweed; 5.6 kg/ha
  Herbicidal rating: 0 (0-24)
Sorghum; 0.0056 kg/ha
  Herbicidal rating: 0 (0-24)
Sorghum; 0.0112 kg/ha
  Herbicidal rating: 1 (25-49)
Sorghum; 0.056 kg/ha
  Herbicidal rating: 0 (0-24)
Sorghum; 0.28 kg/ha
  Herbicidal rating: 0 (0-24)
Sorghum; 1.12 kg/ha
  Herbicidal rating: 3 (75-100)
Sorghum; 5.6 kg/ha
  Herbicidal rating: 1 (25-49)
Soybean; 0.0056 kg/ha
  Herbicidal rating: 0 (0-24)
Soybean; 0.0112 kg/ha
  Herbicidal rating: 0 (0-24)
Soybean; 0.056 kg/ha
  Herbicidal rating: 1 (25-49)
Soybean; 0.28 kg/ha
  Herbicidal rating: 0 (0-24)
Soybean; 1.12 kg/ha
  Herbicidal rating: 0 (0-24)
Soybean; 5.6 kg/ha
  Herbicidal rating: 1 (25-49)
Sugarbeet; 0.0056 kg/ha
  Herbicidal rating: 0 (0-24)
Sugarbeet; 0.0112 kg/ha
  Herbicidal rating: 0 (0-24)
Sugarbeet; 0.056 kg/ha
  Herbicidal rating: 1 (25-49)
Sugarbeet; 0.28 kg/ha
  Herbicidal rating: 1 (25-49)
Sugarbeet; 1.12 kg/ha
  Herbicidal rating: 1 (25-49)
Sugarbeet; 5.6 kg/ha
  Herbicidal rating: 1 (25-49)
Velvetleaf; 0.0056 kg/ha
  Herbicidal rating: 0 (0-24)
Velvetleaf; 0.0112 kg/ha
  Herbicidal rating: 0 (0-24)
Velvetleaf; 0.056 kg/ha
  Herbicidal rating: 0 (0-24)
Velvetleaf; 0.28 kg/ha
  Herbicidal rating: 0 (0-24)
Velvetleaf; 1.12 kg/ha
  Herbicidal rating: 0 (0-24)
Velvetleaf; 5.6 kg/ha
  Herbicidal rating: 0 (0-24)
Wheat; 0.0056 kg/ha
  Herbicidal rating: 0 (0-24)
Wheat; 0.0112 kg/ha
  Herbicidal rating: 0 (0-24)
Wheat; 0.056 kg/ha
  Herbicidal rating: 0 (0-24)
Wheat; 0.28 kg/ha
  Herbicidal rating: 0 (0-24)
Wheat; 1.12 kg/ha
  Herbicidal rating: 1 (25-49)
Wheat; 5.6 kg/ha
  Herbicidal rating: 0 (0-24)
Wild Buckwheat; 0.0056 kg/ha
  Herbicidal rating: 0 (0-24)
Wild Buckwheat; 0.0112 kg/ha
  Herbicidal rating: 0 (0-24)
Wild Buckwheat; 0.056 kg/ha
  Herbicidal rating: 0 (0-24)
Wild Buckwheat; 0.28 kg/ha
  Herbicidal rating: 0 (0-24)
Wild Buckwheat; 1.12 kg/ha
  Herbicidal rating: 0 (0-24)
Wild Buckwheat; 5.6 kg/ha
  Herbicidal rating: 0 (0-24)
Rice; Oryza sativa, 432 h, transplanted rice, 0.28 kg/ha, 18 days after treatment
  inhibition at 280 g/ha: 0%
Rice; Oryza sativa, 432 h, transplanted rice, 0.56 kg/ha, 18 days after treatment
  inhibition at 560 g/ha: 0%
Rice; Oryza sativa, 432 h, transplanted rice, 1.12 kg/ha, 18 days after treatment
  inhibition at 1120 g/ha: 0%
Rice; Oryza sativa, 432 h, transplanted rice, 2.24 kg/ha, 18 days after treatment
  inhibition at 2240 g/ha: 10%
Rice; at 2.24 kg/ha or more
  rice injury (rice safety): ≤ 15%
Cyperus serotinus; 0.28 kg/ha
  inhibition at 280 g/ha: 80%
Cyperus serotinus; 0.56 kg/ha
  inhibition at 560 g/ha: 90%
Cyperus serotinus; 1.12 kg/ha
  inhibition at 1120 g/ha: 100%
Cyperus serotinus; 2.24 kg/ha
  inhibition at 2240 g/ha: 100%
Echinochloa crusgalli; 0.28 kg/ha
  inhibition at 280 g/ha: 100%
Echinochloa crusgalli; 0.56 kg/ha
  inhibition at 560 g/ha: 100%
Echinochloa crusgalli; 1.12 kg/ha
  inhibition at 1120 g/ha: 100%
Echinochloa crusgalli; 2.24 kg/ha
  inhibition at 2240 g/ha: 100%
Eleocharis kuroguwai; 0.28 kg/ha
  inhibition at 280 g/ha: 100%
Eleocharis kuroguwai; 0.56 kg/ha
  inhibition at 560 g/ha: 100%
Eleocharis kuroguwai; 1.12 kg/ha
  inhibition at 1120 g/ha: 100%
Eleocharis kuroguwai; 2.24 kg/ha
  inhibition at 2240 g/ha: 100%
Monochoria vaginalis; 0.28 kg/ha
  inhibition at 280 g/ha: 100%
Monochoria vaginalis; 0.56 kg/ha
  inhibition at 560 g/ha: 100%
Monochoria vaginalis; 1.12 kg/ha
  inhibition at 1120 g/ha: 100%
Monochoria vaginalis; 2.24 kg/ha
  inhibition at 2240 g/ha: 100%
Sagittaria trifolia; 0.28 kg/ha
  inhibition at 280 g/ha: 0%
Sagittaria trifolia; 0.56 kg/ha
  inhibition at 560 g/ha: 5%
Sagittaria trifolia; 1.12 kg/ha
  inhibition at 1120 g/ha: 5%
Sagittaria trifolia; 2.24 kg/ha
  inhibition at 2240 g/ha: 5%
Major Asian rice weeds
  efficacy as a rice herbicide: particularly efficacious as a rice herbicide
Major Asian rice weeds; rates as low as 0.28 kg/ha
  selective weed control: selectively controlled all weeds in the test, except Sagittaria trifolia
